Laboratory results from PMC7150891, “Mertansine Inhibits mRNA Expression and Enzyme Activities of Cytochrome P450s and Uridine 5′-Diphospho-Glucuronosyltransferases in Human Hepatocytes and Liver Microsomes” (Pharmaceutics, 2020).
“Also recorded” adds a separate entry of the source.

Legend:
CYP3A4 = tested on: CYP3A4
Procedure: (§1) Samples were incubated for 48 h at 37 °C in 5% CO2, and the medium was exchanged with 250 μL of fresh medium containing drugs or the vehicle every 24 h.
(§2) The effects of mertansine on CYP1A2, CYP2B6, and CYP3A4 activities were evaluated. […] Mixtures were vortexed for 2 min and then centrifuged at 13,000 g for 4 min at 4 °C. The supernatant (40 µL) was diluted with 60 µL of deionized water and then mixed for 2 min by vortexing. An aliquot (5 µL) was analyzed using LC-MS/MS [37], and CYP1A2, CYP2B6, and CYP3A4 enzyme activities were expressed as formation rates (pmol/million cells/min).
(§3) The percentage changes in enzymatic activities were calculated as (CYP activity with test compound treatment/CYP activity with vehicle control treatment) × 100. The IC50 (the concentration of the inhibitor needed for half-maximal inhibition) values were calculated using SigmaPlot ver. […] Ki (the inhibition constant) and the inhibition mode of UGT1A1, UGT1A3, and UGT1A4 activities were determined using Enzyme Kinetics ver. 1.1 (Systat Software, Inc.).

UGT1A3 = molecular target: T1, UGT1A3 (Homo sapiens, UniProt P35503); experiment: Inhibition of UGT1A3-catalyzed chenodeoxycholic acid 24-acyl-β-glucuronidation in ultrapooled human liver microsomes; format: in vitro ADME
T1 construct: ultrapooled human liver microsomes (0.2 mg/mL); from tissue; host or cells: human liver microsomes (ultrapooled)
T1 sequence (P35503 29-534): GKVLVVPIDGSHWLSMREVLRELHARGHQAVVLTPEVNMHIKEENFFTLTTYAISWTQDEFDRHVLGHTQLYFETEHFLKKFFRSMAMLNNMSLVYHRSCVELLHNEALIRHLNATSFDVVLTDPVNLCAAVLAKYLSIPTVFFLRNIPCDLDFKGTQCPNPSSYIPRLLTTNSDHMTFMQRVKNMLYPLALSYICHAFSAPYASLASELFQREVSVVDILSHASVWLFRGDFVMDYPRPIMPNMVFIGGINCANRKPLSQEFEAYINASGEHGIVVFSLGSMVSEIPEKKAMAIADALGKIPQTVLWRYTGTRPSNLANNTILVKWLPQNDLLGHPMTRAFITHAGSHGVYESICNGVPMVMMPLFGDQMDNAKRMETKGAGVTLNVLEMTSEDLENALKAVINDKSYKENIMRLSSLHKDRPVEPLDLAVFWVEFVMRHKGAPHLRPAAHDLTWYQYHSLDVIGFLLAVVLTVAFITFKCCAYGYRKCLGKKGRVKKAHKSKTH
Procedure: The inhibitory potential of mertansine on UGT1A1, UGT1A3, UGT1A4, UGT1A6, UGT1A9, and UGT2B7 activities was evaluated using liquid chromatography–tandem mass spectrometry (LC-MS/MS) with a cocktail of UGT substrates and ultrapooled human liver microsomes. Each incubation mixture was prepared to a final volume of 100 μL as follows: ultrapooled human liver microsomes (0.2 mg/mL), 5 mM UDPGA, 10 mM magnesium chloride, alamethicin (25 μg/mL), 50 mM Tris buffer (pH 7.4), various concentrations of mertansine in methanol (final concentrations of 0.01–50 μM), and the cocktail sets of UGT enzyme-specific substrates. Two cocktail sets were used: set A contained 0.5 μM SN-38 for UGT1A1, 2 μM chenodeoxycholic acid for UGT1A3, and 0.5 μM trifluoperazine for UGT1A4; and set B contained 1 μM N-acetylserotonin for UGT1A6, 0.2 μM mycophenolic acid for UGT1A9, and 1 μM naloxone for UGT2B7. The reactions were initiated by adding UDPGA and incubated in a shaking water bath for 60 min at 37 °C. […] Next, 50 μL of each supernatant of sets A and B was mixed, and aliquots (5 μL) were analyzed using LC-MS/MS. […]
The LC-MS/MS system was comprised of an Agilent 6495 triple quadrupole mass spectrometer coupled with an Agilent 1290 Infinity system (Agilent Technologies, Wilmington, DE, USA). […] The electrospray ionization (ESI) source settings in both positive and negative ion modes were as follows: gas temperature, 200 °C; gas flow, 14 L/min; nebulizer, 40 psi; sheath gas temperature, 380 °C; sheath gas flow, 11 L/min; capillary voltage, 4500 V; and nozzle voltage, 500 V. Each metabolite was quantified via selected reaction monitoring in the negative ion mode (chenodeoxycholic acid 24-acyl-β-glucuronide, m/z 567.1 to 391.2; mycophenolic acid β-D-glucuronide, m/z 495.0 to 319.0; propofol glucuronide (IS), m/z 353.0 to 177.0) and in the positive ion mode (SN-38 glucuronide, m/z 568.9 to 392.9; trifluoperazine N-β-D-glucuronide, m/z 583.9 to 407.9; N-acetylserotonin β-D-glucuronide, m/z 394.0 to 219.0; naloxone 3-β-D-glucuronide, m/z 503.9 to 309.9; meloxicam (IS), m/z 351.9 to 115.0). […]

CYP2B6 = experiment: CYP2B6-catalyzed bupropion hydroxylase activity in human hepatocytes after 48 h treatment
Procedure: as §1, §2, §3

[1] = mertansine 48 h, three human hepatocytes

COc1cc2cc(c1Cl)N(C)C(=O)CC(OC(=O)C(C)N(C)C(=O)CCS)C1(C)OC1C(C)C1CC(O)(NC(=O)O1)C(OC)C=CC=C(C)C2 (stereo not shown) [mertansine, Mertansine]
Mean decrease of CYP3A4-mediated midazolam 1′-hydroxylase activity (CYP3A4; human, hepatocytes): 39.7% | Decrease of CYP3A4-mediated midazolam 1′-hydroxylase activity compared to vehicle (CYP3A4; [1]): 30.8–62.7% | Inhibition Mode, UGT1A3 (UGT1A3; human liver microsomes, Dixon plot): competitively inhibited; also recorded: competitive inhibitor | Ki (UGT1A3; human liver microsomes, chenodeoxycholic acid 0.5–5 µM): 4.3 µM | IC50 (UGT1A3; ultrapooled human liver microsomes, 2 µM chenodeoxycholic acid (cocktail)): 6.4 µM | Mean decrease of CYP2B6-mediated bupropion hydroxylase activity (CYP2B6; highest concentration (2500 nM), 48 h, mean of three human hepatocytes): 63.5% | Decrease of CYP2B6-mediated bupropion hydroxylase activity compared to vehicle (CYP2B6; [1]): 23.9–93.1%
